Laboratory results reported in ChEMBL document CHEMBL1201862, “PubChem BioAssay data set” (2004).
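Test compounds were applied to cells in 96-well plates for 48 hours at 5 doses. Here, GI50 denotes the concentration required for 50% inhibition of growth.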 The source made the active and inactive calls. Cut-off read from the data, not from the text of the source: active = GI50 up to about 1.1 µM and inactive = higher.

How the values were obtained:
Experiment in all cases: DTP human tumour cell line panel, 48 h
[1] = tested on: DLD-1
[2] = tested on: DMS-114
[3] = tested on: HOP-18
[4] = tested on: M19-MEL
[5] = tested on: LXFL 529
[6] = tested on: KM-20L2
[7] = tested on: XF498
[8] = tested on: SNB-78
[9] = tested on: RXF 631

| SMILES | GI50 [1] | GI50 [2] | GI50 [3] | GI50 [4] | GI50 [5] | GI50 [6] | GI50 [7] | GI50 [8] | GI50 [9] |
| --- | --- | --- | --- | --- | --- | --- | --- | --- | --- |
| Cc1cccc(-n2c(N)c(-c3nc4ccccc4[nH]3)sc2=S)c1 | 25.1 µM (inactive) | 22.8 µM (inactive) | 47.3 µM (inactive) | 25.8 µM (inactive) | 21 µM (inactive) | – | – | – | – |
| CC12CC(=O)NN=C1c1ccccc1C2 (stereo unspecified) | > 100 µM (inactive) | > 100 µM (inactive) | – | > 100 µM (inactive) | – | > 100 µM (inactive) | > 100 µM (inactive) | > 100 µM (inactive) | – |
| N=C(N)NS(=O)(=O)c1ccc(NC(=O)c2cccc3cc4ccccc4nc23)cc1 | > 100 µM (inactive) | 97.5 µM (inactive) | – | > 100 µM (inactive) | 21.7 µM (inactive) | > 100 µM (inactive) | 99.5 µM (inactive) | 40.6 µM (inactive) | – |
| O/N=C1/C(=C/c2ccc(OCc3ccccc3)cc2)CCCC1C(NO)c1ccc(OCc2ccccc2)cc1 (stereo unspecified) | 10.2 µM (inactive) | – | 33 µM (inactive) | 22.2 µM (inactive) | 12.7 µM (inactive) | 8.38 µM (inactive) | – | – | 8.47 µM (inactive) |
| C=C1[C@@H](C)[C@H]2[C@H](Cc3ccccc3)NC(=O)[C@]23OC(=O)/C=C/[C@H](O)CCC[C@@H](C)C/C=C/[C@H]3[C@@H]1O | 0.828 µM (active) | 14.5 µM (inactive) | 0.156 µM (active) | 45.8 µM (inactive) | – | 15.2 µM (inactive) | 0.571 µM (active) | 1.03 µM (active) | – |
| Cc1nc(N)nc(N)c1CCCCc1ccccc1 | 6.15 µM (inactive) | 5.02 µM (inactive) | 42.1 µM (inactive) | 12.4 µM (inactive) | 9.89 µM (inactive) | 10.8 µM (inactive) | – | 35.3 µM (inactive) | 11.9 µM (inactive) |
| C=C[Si](C)(C)COC(=O)/C(C#N)=C/C=C/c1ccccc1 | > 100 µM (inactive) | > 100 µM (inactive) | > 100 µM (inactive) | 99.5 µM (inactive) | 47.5 µM (inactive) | > 100 µM (inactive) | – | > 100 µM (inactive) | – |
| CC1OC(OC2C(CO)OC(O[C@H]3CC[C@@]4(C)C(=CC[C@H]5[C@@H]6C[C@@H]7O[C@]8(CC[C@@H](C)CN8)[C@@H](C)[C@@H]7[C@@]6(C)CC[C@@H]54)C3)C(O)C2O)C(O)C(O)C1O (stereo partly specified) | 55 µM (inactive) | > 100 µM (inactive) | 43.3 µM (inactive) | > 100 µM (inactive) | > 100 µM (inactive) | 28.9 µM (inactive) | > 100 µM (inactive) | > 100 µM (inactive) | – |
| COc1ccc([N+]2=NC(c3ccc([N+](=O)[O-])cc3)=NN(c3ccccc3)C2)cc1 | 26.5 µM (inactive) | 40.1 µM (inactive) | – | – | 27.1 µM (inactive) | 49.4 µM (inactive) | 55.6 µM (inactive) | > 100 µM (inactive) | – |
| CN/C(=N/C#N)NCc1ccccc1 | > 100 µM (inactive) | > 100 µM (inactive) | – | > 100 µM (inactive) | > 100 µM (inactive) | > 100 µM (inactive) | > 100 µM (inactive) | > 100 µM (inactive) | – |
| COC(=O)C(=NNc1ccccc1[N+](=O)[O-])C(=O)OC | – | – | > 100 µM (inactive) | > 100 µM (inactive) | > 100 µM (inactive) | > 100 µM (inactive) | 41.2 µM (inactive) | – | – |
| COc1ccc(CC2C(=O)NC(C)C(=O)N(C)C3C(=O)N(C)C(Cc4ccc(O)c(c4)Oc4ccc(cc4)C3O)C(=O)NC(C)C(=O)NC(C)C(=O)N2C)cc1 (stereo unspecified) | 0.321 µM (active) | 0.00145 µM (active) | 0.00195 µM (active) | 0.013 µM (active) | – | 0.0246 µM (active) | 0.0131 µM (active) | 0.00188 µM (active) | – |
| O=C(O)[C@H](NS(=O)(=O)c1ccc(F)cc1)c1ccccc1 | > 100 µM (inactive) | > 100 µM (inactive) | > 100 µM (inactive) | > 100 µM (inactive) | > 100 µM (inactive) | > 100 µM (inactive) | > 100 µM (inactive) | > 100 µM (inactive) | – |
| NC(=S)N/N=C(/CCN1CCCC1)CC(C1=C(O)C2=CCCCC2OC1=O)c1ccccc1 (stereo unspecified) | > 100 µM (inactive) | – | > 100 µM (inactive) | > 100 µM (inactive) | > 100 µM (inactive) | > 100 µM (inactive) | > 100 µM (inactive) | > 100 µM (inactive) | – |
| CC(C)=CC(=O)CC(=O)C(=O)Nc1ccc(C)c(C)c1 | > 100 µM (inactive) | – | – | > 100 µM (inactive) | > 100 µM (inactive) | > 100 µM (inactive) | > 100 µM (inactive) | > 100 µM (inactive) | > 100 µM (inactive) |
| COc1cc2cccc(/N=C\c3cccc(OC)c3OC(C)C)c2cc1OC | 25.6 µM (inactive) | 17 µM (inactive) | – | 21.3 µM (inactive) | 14.7 µM (inactive) | 51.8 µM (inactive) | 26.8 µM (inactive) | 44.7 µM (inactive) | – |
| Cc1cn([C@H]2C[C@H](N=[N+]=[N-])[C@@H](CO)O2)c(=O)[nH]c1=O [ZIDOVUDINE] | > 100 µM (inactive) | > 95.5 µM (inactive) | > 100 µM (inactive) | > 100 µM (inactive) | – | > 100 µM (inactive) | – | – | – |
| Nc1c(-c2nc3ccccc3[nH]2)sc(=S)n1-c1ccccc1 | 60.7 µM (inactive) | 96.2 µM (inactive) | – | > 100 µM (inactive) | 95.3 µM (inactive) | > 10 µM (inactive) | – | > 100 µM (inactive) | > 100 µM (inactive) |
| Cc1nc2ccccc2nc1CC(=O)C(=O)Nc1ccc(Cl)cc1Cl | > 100 µM (inactive) | – | – | > 100 µM (inactive) | > 100 µM (inactive) | > 100 µM (inactive) | – | > 100 µM (inactive) | > 100 µM (inactive) |
| O=[N+]([O-])c1ccc(C2=Nn3c(nnc3-c3ccccc3)SC2)o1 | 14 µM (inactive) | 19.7 µM (inactive) | 19.5 µM (inactive) | 18.5 µM (inactive) | 16.1 µM (inactive) | 24.7 µM (inactive) | 19.7 µM (inactive) | 20.3 µM (inactive) | – |
| O=[N+]([O-])c1ccc(C2=Nn3cnnc3SC2)o1 | 19.6 µM (inactive) | 10.8 µM (inactive) | – | 4.02 µM (inactive) | 13.6 µM (inactive) | – | 16.6 µM (inactive) | 22.2 µM (inactive) | 12.1 µM (inactive) |
| CCCN(CCC)C(=O)Cc1c2n(c3ccccc13)Cc1ccccc1-2 | 63.4 µM (inactive) | 23.6 µM (inactive) | > 100 µM (inactive) | 56.6 µM (inactive) | 42.4 µM (inactive) | > 100 µM (inactive) | > 100 µM (inactive) | > 100 µM (inactive) | – |
| Cc1cc2nc3c(=O)[nH]c(=O)nc-3n(CC(O)C(O)C(O)CO)c2cc1N (stereo unspecified) | – | > 100 µM (inactive) | > 100 µM (inactive) | > 100 µM (inactive) | > 100 µM (inactive) | – | – | > 100 µM (inactive) | > 100 µM (inactive) |
| C[N+]1(C)C[C@@H](O)C[C@@H]1C(=O)[O-] [BETONICINE] | > 100 µM (inactive) | > 100 µM (inactive) | > 100 µM (inactive) | > 100 µM (inactive) | > 100 µM (inactive) | > 100 µM (inactive) | > 100 µM (inactive) | > 100 µM (inactive) | – |
| COc1ccc(-c2c3ccccc3c(-c3ccc(OC)cc3)c3ccccc23)cc1 | > 100 µM (inactive) | > 100 µM (inactive) | > 100 µM (inactive) | > 100 µM (inactive) | > 100 µM (inactive) | > 100 µM (inactive) | > 100 µM (inactive) | > 100 µM (inactive) | – |
